The values below come from patent US20120015906A1, “USES OF BORTEZOMIB IN PREDICTING SURVIVAL IN MULTIPLE MYELOMA PATIENTS” (priority 2009, published 2012).

Entries after “also recorded” stand apart in the source; their conditions may differ.

Assay [1] has as its system proteasome genes. To be noted: Burington et al., 2009; cited from earlier work.
Assay [2] deals with proteasome genes. In words: Proteasome gene expression changes after short-term exposure (test-dosing) to bortezomib, dexamethasone, thalidomide, melphalan. To be noted: for proteasome gene expression change after short-term exposure: test-dosing in myeloma patients. Format: in vivo, human. An excerpt: In earlier studies, pharmacogenomics was used to identify genes altered by short-term exposure of therapy-naïve cases to thalidomide and dexamethasone. Little to no overlap was found in the genes altered by these agents with those altered by bortezomib.

As for `Nc1cccc2c1CN(C1CCC(=O)NC1=O)C2=O` (stereo not drawn) [lenalidomide], the “hyperactivation of proteasome genes after short-term drug” value in the assay on proteasome genes [1] is “not associated with hyperactivation of proteasome genes”.

Take `N[C@@H](Cc1ccc(N(CCCl)CCCl)cc1)C(=O)O` [melphalan]: in the assay on proteasome genes [2] (FIG. 10, short-term exposure), the “changes for some proteasome genes (e.g. PSMB3 and PSMD14) compared to the changes after bortezomib” value is recorded as “reversed”. The “change of PSMB2 and PSMD14 compared to the changes after bortezomib” value in the assay on proteasome genes [2] (melphalan test-dosing, Total Therapy 4) is “inversely changed”. In addition, in the assay on proteasome genes [2], the “proteasome gene expression change after short-term exposure” value is listed as “most proteasome genes did not change”.

`O=C1CCC(N2C(=O)c3ccccc3C2=O)C(=O)N1` (stereo not drawn) [thalidomide]: in the assay on proteasome genes [2], the “proteasome gene expression change after short-term exposure” value is listed as “complete lack of activation; also recorded: did not change”. Moreover, the “hyperactivation of proteasome genes after short-term drug” value in the assay with proteasome genes [1] is on record as “not associated with hyperactivation of proteasome genes”.
